From the NIST ThermoML archive (doi:10.1021/je400332j)

Assay: xn = mol fraction of the nth substance listed
Details: 101 kPa, Liquid; for viscosity: Concentric cylinders viscometry; for mass density: Vibrating tube method

CCCCCCn1cc[n+](C)c1.F[B-](F)(F)F [1-hexyl-3-methylimidazolium tetrafluoroborate] + CCn1cc[n+](C)c1.F[B-](F)(F)F
Details	mass density [kg/m3]	viscosity [mPa·s]
293.15 K, x2 = 0	1147.5	280.4
293.15 K, x2 = 0.1009	1157.3	244.3
293.15 K, x2 = 0.2005	1168.1	210.7
293.15 K, x2 = 0.3003	1179.5	179.6
293.15 K, x2 = 0.4001	1191.4	151.7
293.15 K, x2 = 0.4999	1204.3	127.1
293.15 K, x2 = 0.6007	1218.1	105
293.15 K, x2 = 0.7004	1232.7	86.22
293.15 K, x2 = 0.8001	1248.5	69.78
293.15 K, x2 = 0.8998	1265.3	56.02
298.15 K, x2 = 0	1144.1	206.3
298.15 K, x2 = 0.1009	1153.9	180.8
298.15 K, x2 = 0.2005	1164.7	157.2
298.15 K, x2 = 0.3003	1176.1	135.1
298.15 K, x2 = 0.4001	1188	115.2
298.15 K, x2 = 0.4999	1200.8	97.48
298.15 K, x2 = 0.6007	1214.6	81.5
298.15 K, x2 = 0.7004	1229.1	67.79
298.15 K, x2 = 0.8001	1244.9	55.7
298.15 K, x2 = 0.8998	1261.7	45.42
303.15 K, x2 = 0	1140.6	154.9
303.15 K, x2 = 0.1009	1150.5	136.9
303.15 K, x2 = 0.2005	1161.2	119.8
303.15 K, x2 = 0.3003	1172.5	103.8
303.15 K, x2 = 0.4001	1184.4	89.33
303.15 K, x2 = 0.4999	1197.2	76.33
303.15 K, x2 = 0.6007	1211	64.52
303.15 K, x2 = 0.7004	1225.5	54.31
303.15 K, x2 = 0.8001	1241.2	45.2
303.15 K, x2 = 0.8998	1257.9	37.38
308.15 K, x2 = 0	1137.2	118.7
308.15 K, x2 = 0.1009	1147.1	105.5
308.15 K, x2 = 0.2005	1157.8	92.98
308.15 K, x2 = 0.3003	1169	81.23
308.15 K, x2 = 0.4001	1180.9	70.51
308.15 K, x2 = 0.4999	1193.6	60.8
308.15 K, x2 = 0.6007	1207.4	51.94
308.15 K, x2 = 0.7004	1221.8	44.18
308.15 K, x2 = 0.8001	1237.5	37.22
308.15 K, x2 = 0.8998	1254.2	31.18
313.15 K, x2 = 0	1133.7	92.56
313.15 K, x2 = 0.1009	1143.6	82.73
313.15 K, x2 = 0.2005	1154.3	73.45
313.15 K, x2 = 0.3003	1165.5	64.64
313.15 K, x2 = 0.4001	1177.4	56.57
313.15 K, x2 = 0.4999	1190.1	49.22
313.15 K, x2 = 0.6007	1203.8	42.45
313.15 K, x2 = 0.7004	1218.2	36.47
313.15 K, x2 = 0.8001	1233.8	31.06
313.15 K, x2 = 0.8998	1250.4	26.32
318.15 K, x2 = 0	1130.3	73.37
318.15 K, x2 = 0.1009	1140.3	65.95
318.15 K, x2 = 0.2005	1150.9	58.94
318.15 K, x2 = 0.3003	1162	52.24
318.15 K, x2 = 0.4001	1173.9	46.08
318.15 K, x2 = 0.4999	1186.5	40.41
318.15 K, x2 = 0.6007	1200.2	35.16
318.15 K, x2 = 0.7004	1214.6	30.49
318.15 K, x2 = 0.8001	1230.1	26.23
318.15 K, x2 = 0.8998	1246.7	22.48
323.15 K, x2 = 0	1127	59.03
323.15 K, x2 = 0.1009	1136.9	53.34
323.15 K, x2 = 0.2005	1147.4	47.98
323.15 K, x2 = 0.3003	1158.5	42.8
323.15 K, x2 = 0.4001	1170.4	38.02
323.15 K, x2 = 0.4999	1183	33.6
323.15 K, x2 = 0.6007	1196.6	29.48
323.15 K, x2 = 0.7004	1211	25.79
323.15 K, x2 = 0.8001	1226.4	22.4
323.15 K, x2 = 0.8998	1242.9	19.38
328.15 K, x2 = 0	1123.6	48.16
328.15 K, x2 = 0.1009	1133.5	43.73
328.15 K, x2 = 0.2005	1144	39.57
328.15 K, x2 = 0.3003	1155.1	35.51
328.15 K, x2 = 0.4001	1166.9	31.77
328.15 K, x2 = 0.4999	1179.4	28.27
328.15 K, x2 = 0.6007	1192.9	25.02
328.15 K, x2 = 0.7004	1207.4	22.05
328.15 K, x2 = 0.8001	1222.7	19.31
328.15 K, x2 = 0.8998	1239.2	16.85
333.15 K, x2 = 0	1120.2	39.71
333.15 K, x2 = 0.1009	1130.1	36.3
333.15 K, x2 = 0.2005	1140.6	33.02
333.15 K, x2 = 0.3003	1151.6	29.82
333.15 K, x2 = 0.4001	1163.4	26.83
333.15 K, x2 = 0.4999	1176	24.04
333.15 K, x2 = 0.6007	1189.5	21.41
333.15 K, x2 = 0.7004	1203.8	19.03
333.15 K, x2 = 0.8001	1219.1	16.8
333.15 K, x2 = 0.8998	1235.6	14.78
338.15 K, x2 = 0	1116.8	33.21
338.15 K, x2 = 0.1009	1126.7	30.47
338.15 K, x2 = 0.2005	1137.2	27.86
338.15 K, x2 = 0.3003	1148.2	25.3
338.15 K, x2 = 0.4001	1160	22.92
338.15 K, x2 = 0.4999	1172.5	20.64
338.15 K, x2 = 0.6007	1186	18.52
338.15 K, x2 = 0.7004	1200.2	16.56
338.15 K, x2 = 0.8001	1215.5	14.73
338.15 K, x2 = 0.8998	1231.9	13.05
343.15 K, x2 = 0	1113.4	28.03
343.15 K, x2 = 0.1009	1123.4	25.82
343.15 K, x2 = 0.2005	1133.8	23.74
343.15 K, x2 = 0.3003	1144.8	21.65
343.15 K, x2 = 0.4001	1156.5	19.72
343.15 K, x2 = 0.4999	1169	17.89
343.15 K, x2 = 0.6007	1182.4	16.11
343.15 K, x2 = 0.7004	1196.7	14.52
343.15 K, x2 = 0.8001	1212	13
343.15 K, x2 = 0.8998	1228.3	11.6
